Results reported in ChEMBL document CHEMBL3137667, “[Drug-induced liver injury; fourteenth updated edition of the bibliographic database of liver injuries and related drugs]” (Gastroenterol Clin Biol, 2004).
Where a SMILES comes first, the peptide text is derived from it. Bridges are numbered along the chain shown (N, C = ends). [ ]: non-standard residue; d: D form.

Legend:
[1] = human
[2] = human; remark: listed apart in the source
[3] = Comments (NB not yet translated). [column 'COMMENTAIRES' in source]; details: human
[4] = human; remark: listed apart in the source
[5] = human; remark: listed apart in the source
[6] = human; remark: listed apart in the source
[7] = human, serum, 4383 h
[8] = human; remark: listed apart in the source
[9] = human, serum
[10] = human; remark: listed apart in the source
[11] = Highest frequency of moderate liver toxicity observed during clinical trials, expressed as a percentage. [column '% BIOL' in source]; details: human
[12] = Times to onset, minimal and maximal, observed in the indexed observations. [column 'DELAI' in source]; details: human
[13] = human; remark: listed apart in the source
[14] = Highest frequency of acute liver toxicity observed during clinical trials, expressed as a percentage. [column '% AIGUE' in source]; details: human
[15] = human; remark: listed apart in the source
[16] = human, serum; remark: listed apart in the source
[17] = Proposed mechanism(s) of liver damage. [column 'MEC' in source]; details: human
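Throughout, for Hepatotoxicity (association with vascular disease): count of indexed literature references reporting vascular liver injury in humans, e.g. peliosis hepatitis, hepatic veno-occlusive disease or Budd-Chiari syndrome.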
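Throughout, for Hepatotoxicity (benign tumour): value is a count of indexed literature references citing a benign tumour confirmed by histopathology.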
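Throughout, for Hepatotoxicity (choleostasis): human cholestatic liver injury, shown by histopathology or by peak ALT or AST elevation over alkaline phosphatase ratio below 2, value counts indexed literature reports.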
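Throughout, for Hepatotoxicity (chronic liver disease): chronic liver injury confirmed by histopathology or persistently raised serum aminotransferase activity beyond 6 months, value given as the count of indexed literature references.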
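Throughout, for Hepatotoxicity (cirrhosis): value is a count of indexed literature references reporting cirrhosis confirmed by histopathology.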
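Throughout, for Hepatotoxicity (cytolytic): human cytolytic liver injury, shown by histopathology or by a ratio above 5 of peak ALT or AST elevation to alkaline phosphatase elevation, value counts indexed references.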
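Throughout, for Hepatotoxicity (granulomatous hepatitis): value is a count of indexed literature references reporting granulomatous liver disease confirmed by histopathology.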
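Throughout, for Hepatotoxicity (malignant tumour): malignant tumour confirmed by histopathology, value gives the count of indexed literature references reporting it.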
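Throughout, for Hepatotoxicity (severe hepatitis): human clinical data: severe hepatitis, meaning potentially life-threatening liver failure or clinically observed cases, the value counts how many indexed literature references report it.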
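Throughout, for Hepatotoxicity (steatosis): steatosis confirmed by histopathology, value is the count of indexed references.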

| Compound | Hepatotoxicity (severe hepatitis) [1] | Hepatotoxicity (association with vascular disease) [2] | Hepatotoxicity (comment) [3] | Hepatotoxicity (cytolytic) [4] | Hepatotoxicity (cirrhosis) [5] | Hepatotoxicity (malignant tumour) [6] | Hepatotoxicity (chronic liver disease) [7] | Hepatotoxicity (steatosis) [8] | Hepatotoxicity (acute) [9] | Hepatotoxicity (choleostasis) [10] | Hepatotoxicity (moderate) [11] [%] | Hepatotoxicity (time to onset) [12] | Hepatotoxicity (benign tumour) [13] | Hepatotoxicity (acute) [14] [%] | Hepatotoxicity (granulomatous hepatitis) [15] | Hepatotoxicity (moderate) [16] | Hepatotoxicity (mechanism) [17] |
| --- | --- | --- | --- | --- | --- | --- | --- | --- | --- | --- | --- | --- | --- | --- | --- | --- | --- |
| CCOc1nc2cccc(C(=O)O)c2n1Cc1ccc(-c2ccccc2-c2nnn[nH]2)cc1 | 1 | 0 | DUCTOPENIE | 3 | 0 | 0 | 0 | 1 | 2 | 0 | 2.4 | 2 weeks - 5.5 months | 0 | 0 | 0 | 3 | – |
| Cc1c(O)cccc1C(=O)N[C@@H](CSc1ccccc1)[C@H](O)CN1C[C@H]2CCCC[C@H]2C[C@H]1C(=O)NC(C)(C)C | 0 | 0 | REACTIVATION_HVB | 3 | 0 | 0 | 0 | 0 | 3 | 0 | 27 | 47 days - 17 months | 0 | 7.4 | 0 | 4 | – |
| CN(C)C(=O)Oc1cc(OC(=O)N(C)C)cc(C(O)CNC(C)(C)C)c1 (stereo not drawn) [BAMBUTEROL] | 0 | 0 | VOIR_TERBUTALINE | 0 | 0 | 0 | 0 | 0 | 0 | 0 | 0 | – | 0 | 0 | 0 | 1 | – |
| CO/N=C(\C(=O)N[C@@H]1C(=O)N2C(C(=O)O)=C(CSc3nnnn3C)CS[C@H]12)c1csc(N)n1 [CEFMENOXIME] | 0 | 0 | CHOLESTASE_PROLONGEE | 0 | 0 | 0 | 0 | 0 | 1 | 1 | 12.2 | – | 0 | 0 | 1 | 11 | – |
| C[C@]12CCC(=O)C=C1CC[C@@H]1[C@@H]2C(=O)C[C@@]2(C)[C@H]1CC[C@]2(O)C(=O)CO [CORTISONE] | 0 | 2 | AGGRAVATION_HEPATITE_VIRALE | 0 | 0 | 0 | 0 | 5 | 0 | 0 | 0 | – | 0 | 0 | 0 | 0 | – |
| CC[C@H](c1ccc(O)cc1)[C@@H](CC)c1ccc(O)cc1 [HEXESTROL] | 0 | 0 | NASH | 0 | 0 | 0 | 1 | 1 | 0 | 0 | 0 | – | 0 | 0 | 0 | 0 | – |
| CC(C)[C@@H]1NC(=O)[C@H](CCCCN)NC(=O)[C@@H](Cc2c[nH]c3ccccc23)NC(=O)[C@H](Cc2ccc(O)cc2)NC(=O)[C@@H](NC(=O)[C@H](N)Cc2ccc3ccccc3c2)CSSC[C@@H](C(=O)N[C@H](C(N)=O)[C@@H](C)O)NC1=O [LANREOTIDE] | 0 | 0 | BOUE_BILIAIRE LITHIASE_VESICULAIRE ENCEPHALOPATHIE | 0 | 0 | 0 | 0 | 0 | 0 | 0 | 0 | – | 0 | 0 | 0 | 0 | – |
| O=C1Nc2ccc(Cl)cc2C(c2ccccc2Cl)=NC1O (stereo not drawn) [LORAZEPAM] | 0 | 0 | I/PYRIMETHAMINE | 0 | 0 | 0 | 0 | 0 | 1 | 0 | 0 | – | 0 | 0 | 0 | 1 | – |
| CC1=C(C/C=C(\C)CCC[C@H](C)CCC[C@H](C)CCCC(C)C)C(=O)c2ccccc2C1=O [PHYTONADIONE] | 0 | 0 | ICTERE_NEONATAL | 0 | 0 | 0 | 0 | 0 | 5 | 0 | 0 | – | 0 | 0 | 0 | 0 | – |
| COc1cc([C@@H]2c3cc4c(cc3[C@@H](O[C@@H]3O[C@@H]5CO[C@@H](c6cccs6)O[C@H]5[C@H](O)[C@H]3O)[C@H]3COC(=O)[C@H]23)OCO4)cc(OC)c1O [TENIPOSIDE] | 0 | 1 | HNR | 0 | 0 | 0 | 0 | 0 | 0 | 0 | 23.8 | – | 0 | 0 | 0 | 4 | – |
| CC(C)[C@@H]1NC(=O)[C@H](CCCCN)NC(=O)[C@@H](Cc2c[nH]c3ccccc23)NC(=O)[C@H](Cc2ccc(O)cc2)NC(=O)[C@@H](NC(=O)[C@H](N)Cc2ccccc2)CSSC[C@@H](C(=O)N[C@@H](Cc2c[nH]c3ccccc23)C(N)=O)NC1=O [VAPREOTIDE] (H-[dF]CY[dW]KVCW-NH2; disulfide 2-7) | 0 | 0 | LITHIASE | 0 | 0 | 0 | 0 | 0 | 0 | 0 | 4.8 | – | 0 | 0 | 0 | 1 | – |
| ANTIMONY (III) ION | 0 | 0 | HEPATONEPHRITE | 1 | 0 | 0 | 0 | 0 | 1 | 0 | 0 | – | 0 | 0 | 0 | 0 | – |
| STIBOGLUCONATE | 0 | 0 | – | 1 | 0 | 0 | 0 | 0 | 2 | 0 | 61.5 | 1 week - 3 weeks | 0 | 2 | 0 | 12 | Dose-dependant |
